Patent US11596632B2, “JAK1 pathway inhibitors for the treatment of gastrointestinal disease” (Incyte Corporation, priority 2018, dated 2023)
Entries after “also recorded” stand apart in the source; their conditions may differ.

Columns and labels:
[1] = system: IL-6-induced STAT3 phosphorylation; test: Ex vivo IL-6-induced STAT3 phosphorylation in dosed patients (marker of JAK1 inhibition); set-up: species or system human; conditions: 100 mg QD to 600 mg QD
Protocol: To assess the inhibitory activity of Compound 1 in serum-rich media, e.g., plasma or whole blood, the assay is conducted using whole blood; briefly, the whole blood sample is stimulated with IL-6 and levels of phosphorylated STAT3 are determined. This assay can be conducted either in vitro (human blood samples are spiked with Compound 1) or ex vivo (whole blood samples collected from human subjects dosed with Compound 1).
(§1) The systemic effects of Compound 1 have been studied in the auto-immune diseases RA and Ps. Inhibition of phosphorylation of STAT3 following stimulation with IL-6, a marker of AK1 inhibition, and TPO, a marker of JAK2 inhibition was measured in both studies. In patients with Ps doses of 100 mg QD, 200 mg QD, 200 mg BID, and 600 mg QD were studied.

[2] = system: TPO-induced STAT3 phosphorylation; test: Ex vivo TPO-induced STAT3 phosphorylation in dosed patients (marker of JAK2 inhibition); set-up: species or system human
Protocol: as §1

[3] = system: IL-10 knockout mouse model of spontaneous colitis; test: IL-10 knockout mouse model of spontaneous colitis; type: in vivo
Excerpt: The interleukin-10 (IL-10) knockout (KO) mouse model mirrors the multifactorial nature of inflammatory bowel disease (IBD), such as ulcerative colitis and Crohn's disease, as IL-10 KO mice, BALB/cAnNTac-1110^em7Tac, spontaneously develop colitis. Colitis in IL-10 KO mice results from an aberrant response of CD4^+ T helper 1-like T cells and an excessive secretion of the proinflammatory cytokines that signal through the Janus kinase/signal transducers and activators of transcription (JAK/STAT) pathway. Compound 1 is a potent JAK1 inhibitor with 22 to >500-fold selectivity for JAK2, JAK3 and TYK2, and is currently being investigated as a monotherapy in a clinical trial for moderate-to-severe ulcerative colitis.
Female IL-10 homozygote knockout mice on the BALB/c strain background were provided by Taconic (USA). From 6 weeks of age onwards, Compound 1 and vehicle (10 mL/kg) were administered by oral gavage twice daily. Diarrhea was quantified on a 0-3 rating scale, (0=normal; 1=soft but still formed; 2=very soft; 3=diarrhea). Mice were euthanized by CO2 asphyxiation and colon length and weight measured. Tissue pathology was scored on a scale of 0 to 10 based on the following criteria: Lymphocytic infiltrate in the mucosa and the gut associated lymphoid tissue located in the lamina propria/submucosa, mucosal erosions/ulcerations, and transmural inflammation. Body weight, stool consistency, fecal occult blood and rectal bleeding were scored. The incidence of rectal prolapse was recorded.

[4] = system: TNBS-induced colitis in BALB/c mice; test: TNBS-induced colitis model in mice; type: in vivo, mouse
Excerpt: Preclinical models of IBD were established in BALB/c mice by intracolonic injection of 2,4,6-trinitrobenzene sulfonic acid (TNBS) or 4-ethoxymethylene-2-phenyl-2-oxazolin-5-one (oxazolone) to trigger an immune response, as described below. Body weight, stool consistency and fecal blood were scored. Additional readouts included colon weight to length ratio and histological evaluation. Blood was collected for pharmacokinetic analysis.
Male BALB/c mice were purchased (Charles River Laboratories) and distal colitis was induced by intracolonic instillation of TNBS (2,4,6-trinitrobenzenesulfonic acid solution, 1 mg in 0.1 mL 50% ethanol). Compound 1 treatment was administered at 30 mg/kg by oral gavage (PO) or 3 mg/kg by intracolonic injection (IC) twice daily (BID). Diarrhea was quantified on a 0-3 rating scale, (0=normal; 1=soft but still formed; 2=very soft; 3=diarrhea) on days 3 to 5 post TNBS sensitization.

[5] = 30 mg/kg oral twice daily, vs vehicle

## N#CCC1(n2cc(-c3ncnc4[nH]ccc34)cn2)CN(C2CCN(C(=O)c3ccnc(C(F)(F)F)c3F)CC2)C1 [Compound 1, {1-{1-[3-Fluoro-2-(trifluoromethyl)isonicotinoyl]piperidin-4-yl}-3-[4-(7H-pyrrolo[2,3-d]pyrimidin-4-yl)-1H-pyrazol-1-yl]azetidin-3-yl}acetonitrile]
[1]; RA patients, Cycle 1 Day 15
  inhibition of IL-6 induced pSTAT3: general trend of dose-dependent inhibition of IL-6 induced pSTAT3
[1]; psoriasis patients
  inhibition of pSTAT3 in response to IL-6 stimulation ex vivo: concentration dependent inhibition of pSTAT3
[2]; RA patients, 100 mg QD to 600 mg QD, Cycle 1 Day 15
  TPO induced pSTAT3 inhibition: general trend of increasing TPO induced pSTAT3 inhibition
[2]; psoriasis patients, 100 mg QD, 200 mg QD, and 200 mg BID
  inhibition of pSTAT3 in response to TPO: no significant inhibition of pSTAT3
[3]; 30 mg/kg oral twice daily
  colitis / disease onset: inhibited disease onset; also recorded: significantly (p<0.001) delayed colitis onset
  disease-associated weight loss: modulated disease-associated weight loss
[3]; [5]
  colon structural pathology: significant (p<0.01) reduction in colon structural pathology
  cumulative clinical disease score (symptoms): reduces symptoms; also recorded: significantly (p<0.0001) reduced
  incidence of rectal prolapse: significantly (p<0.01) lower
  lymphocytic infiltration and transmural inflammation: significantly (p<0.01) decreased
[3]; oral, vs vehicle
  gene expression in the colon: differential gene expression profiles in the colon
[3]; systemic (oral) delivery
  colon morphology: significant protective effects on colon morphology
[4]; 3 mg/kg IC BID
  fecal blood score: significant (p<0.05) decrease in fecal blood score
  total colonic macroscopic damage: ameliorated total colonic macroscopic damage
[4]; 3 mg/kg intracolonic BID
  disease severity / disease recovery: significantly reduced disease severity; also recorded: highly efficacious in enhancing disease recovery; also recorded: more rapidly induced recovery; also recorded: highly efficacious in TNBS-induced colitis
[4]; 30 mg/kg PO BID, vs vehicle
  disease severity / disease score recovery: significantly reduced disease severity; also recorded: accelerated disease score recovery
[4]; 30 mg/kg PO or 3 mg/kg intracolonic, twice daily, vs control
  stool consistency: significantly (p<0.05) improved stool consistency
